Results taken from US20100094053A1, “USE OF PERSONAL CARE COMPOSITION” (CONOPCO, INC., D/B/A UNILEVER, priority 2008, published 2010).

Assays:
[1] = molecular target: T1, human recombinant CB1 receptor (Homo sapiens, UniProt P21554); test: CB1 receptor inhibition binding assay ([3H]-CP-55,940 displacement)
T1 construct: expressed in transfected cells; host or cells: HEK-293
Procedure: (§1) Ki values were calculated by applying the Cheng-Prusoff equation to the IC50 values (obtained by GraphPad) for the displacement of the bound radioligand by increasing concentrations of the test compound.

[2] = molecular target: T2, human recombinant CB2 receptor (Homo sapiens, UniProt P34972); test: CB2 receptor inhibition binding assay ([3H]-CP-55,940 displacement); conditions: 0.084 nM [3H]-CP-55,940, 90 minutes at 30° C
T2 construct: expressed in transfected cells; host or cells: HEK-293
T2 sequence (P34972 whole entry): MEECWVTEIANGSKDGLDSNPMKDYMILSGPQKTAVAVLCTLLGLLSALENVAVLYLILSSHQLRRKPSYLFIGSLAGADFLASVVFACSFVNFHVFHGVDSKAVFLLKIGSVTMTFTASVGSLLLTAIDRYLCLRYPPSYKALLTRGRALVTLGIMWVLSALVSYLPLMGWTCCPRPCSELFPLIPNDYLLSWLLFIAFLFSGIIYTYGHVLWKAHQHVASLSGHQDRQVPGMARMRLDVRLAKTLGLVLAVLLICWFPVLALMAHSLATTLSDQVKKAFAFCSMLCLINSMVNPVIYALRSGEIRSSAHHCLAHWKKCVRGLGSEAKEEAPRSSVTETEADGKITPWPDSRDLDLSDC
Procedure: as §1

[3] = system: histamine induced scalp itch; test: Clinical assessment of histamine induced scalp itch (histamine iontophoresis, half head study); assay type: in vivo, human; conditions: 1.5% v/v CMEA in ethanol, 30 μl patch on scalp for 24 h, then histamine iontophoresis
Procedure: Cocomonoethanolamide (CMEA) efficacy against itch was assessed using histamine iontophoresis. CMEA (1.5% v/v) was made up in 100% ethanol. The same concentration of ethanol was used as the vehicular control. A total of 31 subjects completed the randomised, double blind, half head clinical study. Volunteers were initially familiarised with the iontophoresis equipment and test protocol prior to study commencement. Following this phase, product application was commenced. Two sites were selected on each side of the head approximately halfway between the top of the ear and the apex of the head. An area of 2 cm^2 was carefully trimmed close to the scalp. Both the CMEA test solution and the ethanol control (30 μl each) were applied to a filter paper and placed in a 12 mm Finn chamber, which was attached the scalp with adhesive tape. Volunteers kept the patch in place for a period of 24 h. The chambers were then removed from the scalp and each application site received a histamine challenge via iontophoresis. Subjects scored perceived itch throughout the procedure by sliding an indicator up or down a Visual Analogue Score (VAS; calibrated in gradient fashion from 0 (none) to 100% (extremely intense)) to indicate itch intensity in real time. Data are expressed as the mean area under the curve+/−S.E. (standard error of the mean).

T1 sequence (P21554 whole entry): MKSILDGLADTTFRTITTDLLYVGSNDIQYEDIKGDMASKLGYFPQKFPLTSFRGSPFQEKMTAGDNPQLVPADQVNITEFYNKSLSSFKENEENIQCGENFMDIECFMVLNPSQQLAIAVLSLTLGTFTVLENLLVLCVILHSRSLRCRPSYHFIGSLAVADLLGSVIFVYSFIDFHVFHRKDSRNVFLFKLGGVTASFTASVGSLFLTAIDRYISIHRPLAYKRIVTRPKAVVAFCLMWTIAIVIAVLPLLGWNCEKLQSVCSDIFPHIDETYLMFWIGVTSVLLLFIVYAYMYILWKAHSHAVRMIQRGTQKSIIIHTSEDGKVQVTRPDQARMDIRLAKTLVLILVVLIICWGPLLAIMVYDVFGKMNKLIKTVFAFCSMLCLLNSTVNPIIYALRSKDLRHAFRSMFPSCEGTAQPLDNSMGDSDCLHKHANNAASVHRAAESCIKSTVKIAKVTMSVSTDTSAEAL

Substance: Cocomonoethanolamide [CMEA]
- IC50 for displacement of [3H]-CP-55,940 at CB1 receptor ([1]; HEK-293 cells transfected with human recombinant CB1 receptor, 0.14 nM [3H]-CP-55,940, 90 minutes at 30° C): 5.08 µg/mL
- Ki at CB1 receptor ([1]; calculated by Cheng-Prusoff equation from IC50, 0.14 nM [3H]-CP-55,940, 90 minutes at 30° C): 2.85 µg/mL
- binding affinity, CB1R compared with CB2R ([1]; comparison of CB1 and CB2 binding data): higher for the CB1R than for CB2R
- IC50 for displacement of [3H]-CP-55,940 at CB2 receptor ([2]; HEK-293 cells transfected with human recombinant CB2 receptor): 8.19 µg/mL
- Ki at CB2 receptor ([2]; calculated by Cheng-Prusoff equation from IC50): 6.44 µg/mL
- Visual Analogue Score (area under the curve; mean +/− S.E.M.) ([3]; 31 subjects): 74942 (9625)
- reduction of perceived scalp itch ([3]; versus ethanol control, P<0.02): 16.6%
